# ChEMBL document CHEMBL1201862, “PubChem BioAssay data set” (2004)
# Activity calls are given as the source filed them.
# Tests used:
# Staphylococcus aureus = experiment: Inhibitors of Bacterial Quorum Sensing Structure Activity Relationship (SAR) Analysis: Dose Response Assay. [Related pubchem assays: 700, 527 ]; format: functional, organism-based
# [1] = target: Transitional endoplasmic reticulum ATPase (Homo sapiens, UniProt P55072, C522A); experiment: C522A mutant p97 ATPase inhibitors, dose response, counter-screen for p97 inhibitor project, biochemical, luminescence (AID 1544)
# [2] = target: Transitional endoplasmic reticulum ATPase (Homo sapiens, UniProt P55072); experiment: p97 ATPase inhibitors, dose response, biochemical (AID 1534)
# [3] = luciferase reporter signal suppression in cells – H4 neuroglioma cells, luminescence, dose response (AID 1990); format: functional, cell-based
# [4] = target: T1, Neuropeptide Y receptor type 1 (Homo sapiens, UniProt P25929); format: functional;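 for IC50: HEK293 cells with a CNG channel challenged with NPY then isoproterenol; potency as antagonist that reverses NPY suppression of cAMP signal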
# [5] = Luminescence Cell-Based Dose Response HTS to Identify Inhibitors of 5'UTR Stem-Loop Driven Prion Protein mRNA Translation in H4 Neuroglioblastoma Cells. [Related pubchem assays: 1827 (Project Summary), 1813 (Primary HTS)]; format: functional
# [6] = alpha-synuclein stem-loop luciferase translation blockers – H4 neuroglioma cells, luminescence, confirmation (AID 1988); format: functional, cell-based
# [7] = target: T2, Neuropeptide Y receptor type 2 (Homo sapiens, UniProt P49146); format: functional, cell-based;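 for IC50: HEK293 cells expressing the receptor and a CNG channel; stimulus was NPY near EC95 followed by isoproterenol to raise cAMP; antagonist potency measured as restoring cAMP signal that NPY suppresses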
# [8] = target: Photoreceptor-specific nuclear receptor (Homo sapiens, UniProt Q9Y5X4); format: functional;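 note: potency for compounds that break the NR2E3 corepressor complex and count as activators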
# [9] = target: Peroxisome proliferator-activated receptor gamma/Nuclear receptor corepressor 2 (Homo sapiens, UniProt P37231+Q9Y618); format: functional
# [10] = decrease of insulin promoter-GFP reporter – imaging, high-content screening, mouse beta cells (AID 1628); format: functional; details: MIN6
# [11] = MIN6 cell viability loss – mouse insulinoma, cytotoxicity control, dose response (AID 2122); format: functional;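 note: confirmatory high-throughput counterscreen run to flag cytotoxic compounds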
# Large T antigen = Large T antigen (Simian virus 40, UniProt P03070); format: functional, Betapolyomavirus macacae;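 note: Confirmatory-stage PubChem screen for compounds that inhibit SV40 T antigen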
# [12] = target: T3, Mannose-6-phosphate isomerase (Homo sapiens, UniProt P34949); experiment: MPI enzyme activity inhibition – biochemical, fluorescence intensity, coupled assay, primary screen (AID 1209)
# T3 sequence (P34949 whole entry): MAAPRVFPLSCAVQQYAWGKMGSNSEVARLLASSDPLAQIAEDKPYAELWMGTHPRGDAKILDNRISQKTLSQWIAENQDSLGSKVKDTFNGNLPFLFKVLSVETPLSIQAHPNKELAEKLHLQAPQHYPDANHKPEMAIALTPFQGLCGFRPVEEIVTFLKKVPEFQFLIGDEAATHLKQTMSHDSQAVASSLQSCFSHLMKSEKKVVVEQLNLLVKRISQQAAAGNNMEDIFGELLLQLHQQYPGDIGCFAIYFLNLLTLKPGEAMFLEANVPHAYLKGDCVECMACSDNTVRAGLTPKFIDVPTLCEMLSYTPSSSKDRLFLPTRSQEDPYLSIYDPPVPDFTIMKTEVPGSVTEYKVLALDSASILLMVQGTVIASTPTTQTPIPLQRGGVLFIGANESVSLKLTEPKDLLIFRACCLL
# [13] = target: Lysosomal acid glucosylceramidase (Homo sapiens, UniProt P04062); experiment: Dose response cell-based high throughput screening assay to identify enhancers of beta-glucosidase activity. [Related pubchem assays: 784 ]; format: functional
# cells [14] = format: functional, cell-based
# cells [15] = format: functional, cell-based; remark: listed apart in the source
# Bcl-2-like protein 10 = target: T4, Bcl-2-like protein 10 (Homo sapiens, UniProt Q9HD36); experiment: Concentration-response of Bcl-B inhibitors by biochemical FP with TR3 (AID 1243); format: functional
# T4 sequence (Q9HD36 whole entry): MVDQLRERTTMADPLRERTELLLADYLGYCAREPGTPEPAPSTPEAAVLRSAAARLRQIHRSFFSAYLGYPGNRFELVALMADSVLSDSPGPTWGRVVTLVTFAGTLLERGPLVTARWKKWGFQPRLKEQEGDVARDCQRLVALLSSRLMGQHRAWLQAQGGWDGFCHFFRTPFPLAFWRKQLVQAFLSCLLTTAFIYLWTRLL
# [16] = target: G2/mitotic-specific cyclin-B1 (Homo sapiens, UniProt P14635); experiment: Counterscreen assay for inhibitors of Wee1 degradation: dose response cell-based assay to identify inhibitors of cyclin B degradation. [Related pubchem assays: 1410, 1321 ]; format: functional
# Wee1-like protein kinase = Wee1-like protein kinase (Homo sapiens, UniProt P30291); experiment: Dose Response Cell-based Assay for Inhibitors of Wee1 Degradation. [Related pubchem assays: 1410, 1321 ]; format: functional
# [17] = HPDE-C7 pancreatic duct cell viability loss – fluorescence, HTS (AID 430); format: functional, cell-based; details: Homo sapiens
# [18] = microbe, parasite or virus in culture; format: functional; details: Mycobacterium tuberculosis
# [19] = viability loss of HPDE-C7K cells – cell-based, fluorescence, HTS, primary screen (AID 431); format: functional; details: Homo sapiens
# [20] = viability of PTEN-deleted HCT116 cells – cell-based, HCT116 PTEN knockout, dose response (AID 1047); format: functional;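 note: HCT116 colon tumor cells with PTEN knocked out; cells exposed to compound for 60 hours before readout; potency for loss of cell viability measured by luminescence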
# [21] = target: T5, Calpain-2 catalytic subunit (Sus scrofa, UniProt P43367); experiment: m-calpain protease blockers, concentration series – biochemical, fluorogenic peptide substrate, dose response (AID 1420); format: functional
# T5 sequence (P43367 whole entry): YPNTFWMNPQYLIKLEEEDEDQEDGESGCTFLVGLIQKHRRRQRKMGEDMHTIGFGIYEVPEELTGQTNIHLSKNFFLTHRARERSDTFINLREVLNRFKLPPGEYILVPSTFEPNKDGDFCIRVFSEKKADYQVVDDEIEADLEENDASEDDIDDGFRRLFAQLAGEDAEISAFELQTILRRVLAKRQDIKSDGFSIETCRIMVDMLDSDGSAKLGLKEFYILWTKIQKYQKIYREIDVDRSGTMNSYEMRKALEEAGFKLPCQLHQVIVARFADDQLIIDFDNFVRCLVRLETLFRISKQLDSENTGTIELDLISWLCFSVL
# [22] = viability of HCT116 lacking mutant beta-catenin – cell-based, human colon tumor, dose response (AID 1045); format: functional;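 note: HCT116 colon tumor cells with beta catenin knocked out; cells exposed to compound for 60 hours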
# [23] = THP-1 cell cytotoxicity, dose response, cytotoxicity control for non-replicating M. tuberculosis project (AID 489025); format: functional
# [24] = HepG2 cell cytotoxicity, dose response, cytotoxicity control for non-replicating M. tuberculosis project (AID 489018); format: functional; details: Mycobacterium tuberculosis
# [25] = Vero E6 cell cytotoxicity, dose response, cytotoxicity control for non-replicating M. tuberculosis project, secondary assay (AID 492998); format: functional, VeroE6; details: Vero C1008
# cells [26] = format: functional
# INS1 = experiment: INS-1E survival protection against cytokine death – cell-based, luminescence, retest, dose response (AID 449756); format: functional; details: Rattus norvegicus;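 note: cell death triggered by IL-1 beta plus TNF-alpha plus IFN-gamma mixture; protective hits raise ATP signal compared with cytokine alone wells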
# [27] = target: T6, Eukaryotic translation initiation factor 2-alpha kinase 3 (Homo sapiens, UniProt Q9NZJ5); experiment: Dose response cell-based high-throughput screening assay to measure PERK inhibition. [Related pubchem assays: 1416 ]; format: functional
# [28] = target: T6, Eukaryotic translation initiation factor 2-alpha kinase 3; experiment: Counterscreen assay for PERK inhibitors: Dose response cell-based high throughput screening assay to measure inhibition of PERK at 6 hours. [Related pubchem assays: 1522, 1416 ]; format: functional
# HEK293 [29] = experiment: Fluorescence-based counterscreen for potentiators or agonists of NPY-Y2: cell-based high-throughput dose response assay to identify inhibitors of cyclic nucleotide gated ion channel (CNGC) activity. In this assay, the parental HEK293 cell line transfected with a cyclic-nucleotide gated ion channel (CNGC)-based cAMP sensor is used to measure inhibition of isoproterenol-induced CNGC activity by test compound.; format: functional; details: Homo sapiens
# [30] = target: T2, Neuropeptide Y receptor type 2; experiment: Fluorescence-based cell-based high-throughput dose response assay for agonists of NPY-Y2. [Related pubchem assays: 1703 (Screening assay (CNGC inhibitors).), 1359 (Screening assay (NPY-Y2 potentiators or agonists).), 1304 (Screening assay (NPY-Y1 potentiators or agonists).), 1710 (Screening assay (NPY-Y2 agonists).), 1791 (Summary AID.)]; format: functional
# [31] = target: T1, Neuropeptide Y receptor type 1; experiment: Fluorescence-based counterscreen for agonists of NPY-Y2: cell-based high-throughput dose response assay for agonists of NPY-Y1.; format: functional
# Tumor necrosis factor = Tumor necrosis factor (Homo sapiens, UniProt P01375); experiment: analog potency on TNFa NF-kB signaling – cell-based, revised, SAR follow-up (AID 2337); format: functional
# [32] = target: T7, Nucleotide-binding oligomerization domain-containing protein 1 (Homo sapiens, UniProt Q9Y239); experiment: blockers of NOD1 pathway activity – revised, SAR follow-up (AID 2333); format: functional
# T7 sequence (Q9Y239 whole entry): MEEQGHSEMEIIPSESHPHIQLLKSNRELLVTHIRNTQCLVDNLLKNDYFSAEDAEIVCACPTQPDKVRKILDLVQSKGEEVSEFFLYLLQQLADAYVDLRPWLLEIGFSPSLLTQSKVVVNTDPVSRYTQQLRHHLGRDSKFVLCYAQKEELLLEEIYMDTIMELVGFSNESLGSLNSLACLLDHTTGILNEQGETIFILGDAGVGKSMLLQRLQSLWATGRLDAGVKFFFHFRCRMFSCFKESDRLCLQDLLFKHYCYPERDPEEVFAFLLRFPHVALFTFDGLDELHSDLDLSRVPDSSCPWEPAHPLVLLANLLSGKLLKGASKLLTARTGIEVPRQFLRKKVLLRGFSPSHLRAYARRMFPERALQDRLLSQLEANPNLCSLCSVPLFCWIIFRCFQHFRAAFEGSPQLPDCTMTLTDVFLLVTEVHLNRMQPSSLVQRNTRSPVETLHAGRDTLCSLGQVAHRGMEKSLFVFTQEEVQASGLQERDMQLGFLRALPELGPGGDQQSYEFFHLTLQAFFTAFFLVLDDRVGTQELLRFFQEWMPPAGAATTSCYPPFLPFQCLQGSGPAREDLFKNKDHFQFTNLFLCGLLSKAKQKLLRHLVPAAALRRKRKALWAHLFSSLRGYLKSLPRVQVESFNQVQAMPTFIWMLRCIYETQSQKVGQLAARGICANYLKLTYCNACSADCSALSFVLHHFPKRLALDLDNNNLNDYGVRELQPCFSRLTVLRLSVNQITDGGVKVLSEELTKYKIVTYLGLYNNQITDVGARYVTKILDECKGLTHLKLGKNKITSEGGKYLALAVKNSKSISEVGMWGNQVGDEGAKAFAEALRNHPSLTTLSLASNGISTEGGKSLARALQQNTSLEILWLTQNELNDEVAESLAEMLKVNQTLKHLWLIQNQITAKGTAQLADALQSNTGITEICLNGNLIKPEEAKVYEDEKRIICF
# Vero = experiment: cells; format: functional; details: Chlorocebus sabaeus
# HEK293 [33] = experiment: cells; details: Homo sapiens
# T6 sequence (Q9NZJ5 whole entry): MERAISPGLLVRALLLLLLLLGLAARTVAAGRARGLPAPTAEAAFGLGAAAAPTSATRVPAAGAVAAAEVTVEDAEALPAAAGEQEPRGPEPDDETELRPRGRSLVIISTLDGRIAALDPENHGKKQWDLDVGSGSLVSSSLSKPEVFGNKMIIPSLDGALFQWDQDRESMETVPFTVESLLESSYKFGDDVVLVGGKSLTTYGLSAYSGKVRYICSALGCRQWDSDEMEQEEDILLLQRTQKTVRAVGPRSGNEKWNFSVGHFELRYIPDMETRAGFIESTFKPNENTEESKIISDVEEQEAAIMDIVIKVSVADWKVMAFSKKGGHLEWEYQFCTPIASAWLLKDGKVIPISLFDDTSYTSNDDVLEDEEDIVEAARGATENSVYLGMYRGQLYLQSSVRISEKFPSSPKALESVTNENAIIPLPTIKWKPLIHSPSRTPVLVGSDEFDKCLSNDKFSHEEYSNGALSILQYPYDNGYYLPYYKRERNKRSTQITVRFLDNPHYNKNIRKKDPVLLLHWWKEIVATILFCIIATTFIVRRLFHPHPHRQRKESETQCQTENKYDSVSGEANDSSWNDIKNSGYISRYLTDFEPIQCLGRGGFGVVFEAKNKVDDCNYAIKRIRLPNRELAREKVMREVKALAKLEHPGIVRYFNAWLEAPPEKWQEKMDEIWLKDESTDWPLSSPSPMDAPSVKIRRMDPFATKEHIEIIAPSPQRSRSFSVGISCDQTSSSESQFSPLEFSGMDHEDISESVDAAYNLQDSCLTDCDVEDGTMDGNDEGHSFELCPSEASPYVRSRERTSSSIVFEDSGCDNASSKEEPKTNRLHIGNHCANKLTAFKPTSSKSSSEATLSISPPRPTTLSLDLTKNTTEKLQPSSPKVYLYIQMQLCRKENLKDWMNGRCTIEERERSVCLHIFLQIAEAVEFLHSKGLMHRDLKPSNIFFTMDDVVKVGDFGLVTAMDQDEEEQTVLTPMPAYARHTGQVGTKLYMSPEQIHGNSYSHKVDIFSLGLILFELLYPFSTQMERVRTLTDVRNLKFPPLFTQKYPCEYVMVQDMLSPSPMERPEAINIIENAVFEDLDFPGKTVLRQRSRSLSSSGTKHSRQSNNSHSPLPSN
# T2 sequence (P49146 whole entry): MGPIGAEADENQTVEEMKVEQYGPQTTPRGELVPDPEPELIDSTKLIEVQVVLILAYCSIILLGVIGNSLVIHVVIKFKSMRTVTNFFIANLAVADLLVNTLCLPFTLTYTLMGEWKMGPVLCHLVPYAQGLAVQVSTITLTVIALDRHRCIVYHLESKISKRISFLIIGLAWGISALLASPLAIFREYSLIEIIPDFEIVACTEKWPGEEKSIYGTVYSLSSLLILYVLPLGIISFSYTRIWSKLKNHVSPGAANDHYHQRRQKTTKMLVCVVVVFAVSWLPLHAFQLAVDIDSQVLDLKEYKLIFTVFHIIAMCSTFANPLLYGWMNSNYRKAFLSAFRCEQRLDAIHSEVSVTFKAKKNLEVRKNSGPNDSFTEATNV
# T1 sequence (P25929 whole entry): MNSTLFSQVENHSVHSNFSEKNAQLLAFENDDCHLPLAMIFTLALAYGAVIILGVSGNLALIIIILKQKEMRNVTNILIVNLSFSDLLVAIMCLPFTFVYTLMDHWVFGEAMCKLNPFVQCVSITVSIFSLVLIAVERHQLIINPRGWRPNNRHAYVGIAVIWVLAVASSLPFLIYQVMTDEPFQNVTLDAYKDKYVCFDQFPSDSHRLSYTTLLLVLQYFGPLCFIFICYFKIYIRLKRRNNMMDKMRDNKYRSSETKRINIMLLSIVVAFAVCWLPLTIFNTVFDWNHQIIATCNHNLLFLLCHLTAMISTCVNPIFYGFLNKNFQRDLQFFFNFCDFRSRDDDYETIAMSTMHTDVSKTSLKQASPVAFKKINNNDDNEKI
# Lysosomal acid glucosylceramidase, sequence (P04062 whole entry): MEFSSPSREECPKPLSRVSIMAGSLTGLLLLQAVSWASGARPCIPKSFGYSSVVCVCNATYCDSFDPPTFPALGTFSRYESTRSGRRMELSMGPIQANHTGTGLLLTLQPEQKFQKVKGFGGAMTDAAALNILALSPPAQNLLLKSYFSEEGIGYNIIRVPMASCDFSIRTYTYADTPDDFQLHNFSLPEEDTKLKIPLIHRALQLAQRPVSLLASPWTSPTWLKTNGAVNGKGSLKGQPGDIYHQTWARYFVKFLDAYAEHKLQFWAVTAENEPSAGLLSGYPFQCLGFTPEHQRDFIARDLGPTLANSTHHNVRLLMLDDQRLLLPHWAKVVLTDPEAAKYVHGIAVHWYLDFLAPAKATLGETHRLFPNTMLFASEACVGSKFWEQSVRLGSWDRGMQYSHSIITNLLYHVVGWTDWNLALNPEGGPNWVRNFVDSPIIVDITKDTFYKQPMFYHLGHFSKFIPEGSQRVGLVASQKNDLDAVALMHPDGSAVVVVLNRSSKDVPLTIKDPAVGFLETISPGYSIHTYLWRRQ
# Transitional endoplasmic reticulum ATPase (Homo sapiens, UniProt P55072), sequence (P55072 whole entry): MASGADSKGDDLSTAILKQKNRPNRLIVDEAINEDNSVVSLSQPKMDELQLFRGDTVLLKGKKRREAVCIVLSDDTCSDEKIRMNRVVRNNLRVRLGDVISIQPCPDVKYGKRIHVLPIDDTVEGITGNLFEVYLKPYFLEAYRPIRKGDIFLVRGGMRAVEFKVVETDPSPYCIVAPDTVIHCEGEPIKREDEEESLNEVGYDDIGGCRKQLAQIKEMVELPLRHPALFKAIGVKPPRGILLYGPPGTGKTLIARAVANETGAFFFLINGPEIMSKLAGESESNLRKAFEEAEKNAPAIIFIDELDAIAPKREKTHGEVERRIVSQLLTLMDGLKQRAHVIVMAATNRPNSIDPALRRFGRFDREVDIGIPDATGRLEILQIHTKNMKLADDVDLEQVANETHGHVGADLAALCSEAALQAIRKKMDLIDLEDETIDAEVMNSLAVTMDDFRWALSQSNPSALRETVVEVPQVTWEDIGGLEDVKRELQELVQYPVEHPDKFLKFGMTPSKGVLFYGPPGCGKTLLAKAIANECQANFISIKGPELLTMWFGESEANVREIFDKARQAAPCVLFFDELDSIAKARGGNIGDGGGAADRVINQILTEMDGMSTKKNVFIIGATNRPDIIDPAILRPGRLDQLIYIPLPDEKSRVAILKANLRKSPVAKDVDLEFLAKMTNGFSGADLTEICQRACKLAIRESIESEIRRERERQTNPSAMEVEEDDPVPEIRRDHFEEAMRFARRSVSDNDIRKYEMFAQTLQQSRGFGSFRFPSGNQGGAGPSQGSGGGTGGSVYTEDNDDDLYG
# Tumor necrosis factor, sequence (P01375 whole entry, the tested form may be a part): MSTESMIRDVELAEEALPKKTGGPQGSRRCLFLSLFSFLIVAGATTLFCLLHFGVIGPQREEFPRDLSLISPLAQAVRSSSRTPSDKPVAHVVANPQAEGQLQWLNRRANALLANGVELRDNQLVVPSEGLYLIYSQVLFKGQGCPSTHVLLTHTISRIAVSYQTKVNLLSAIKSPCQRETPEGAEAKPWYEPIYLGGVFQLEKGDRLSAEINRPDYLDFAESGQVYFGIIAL
# Wee1-like protein kinase, sequence (P30291 whole entry): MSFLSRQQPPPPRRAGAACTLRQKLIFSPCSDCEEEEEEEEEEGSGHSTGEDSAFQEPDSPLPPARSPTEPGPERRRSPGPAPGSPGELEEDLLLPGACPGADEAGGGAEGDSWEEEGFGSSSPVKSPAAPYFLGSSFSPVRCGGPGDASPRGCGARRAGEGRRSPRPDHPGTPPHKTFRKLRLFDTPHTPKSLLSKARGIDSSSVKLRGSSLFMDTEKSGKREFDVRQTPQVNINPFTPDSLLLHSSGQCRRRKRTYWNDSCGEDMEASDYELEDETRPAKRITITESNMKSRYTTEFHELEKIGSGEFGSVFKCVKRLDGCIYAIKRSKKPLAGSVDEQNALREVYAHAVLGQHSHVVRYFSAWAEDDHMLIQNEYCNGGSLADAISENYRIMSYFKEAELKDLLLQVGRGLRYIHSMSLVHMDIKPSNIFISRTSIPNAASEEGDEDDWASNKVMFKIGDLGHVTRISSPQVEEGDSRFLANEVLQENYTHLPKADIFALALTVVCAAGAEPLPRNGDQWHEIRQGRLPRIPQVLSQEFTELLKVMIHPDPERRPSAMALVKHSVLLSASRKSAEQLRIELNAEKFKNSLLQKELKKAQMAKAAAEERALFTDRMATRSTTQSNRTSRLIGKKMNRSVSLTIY
# Transitional endoplasmic reticulum ATPase (Homo sapiens, UniProt P55072, C522A), sequence (P55072 2-806 C522A limits assumed): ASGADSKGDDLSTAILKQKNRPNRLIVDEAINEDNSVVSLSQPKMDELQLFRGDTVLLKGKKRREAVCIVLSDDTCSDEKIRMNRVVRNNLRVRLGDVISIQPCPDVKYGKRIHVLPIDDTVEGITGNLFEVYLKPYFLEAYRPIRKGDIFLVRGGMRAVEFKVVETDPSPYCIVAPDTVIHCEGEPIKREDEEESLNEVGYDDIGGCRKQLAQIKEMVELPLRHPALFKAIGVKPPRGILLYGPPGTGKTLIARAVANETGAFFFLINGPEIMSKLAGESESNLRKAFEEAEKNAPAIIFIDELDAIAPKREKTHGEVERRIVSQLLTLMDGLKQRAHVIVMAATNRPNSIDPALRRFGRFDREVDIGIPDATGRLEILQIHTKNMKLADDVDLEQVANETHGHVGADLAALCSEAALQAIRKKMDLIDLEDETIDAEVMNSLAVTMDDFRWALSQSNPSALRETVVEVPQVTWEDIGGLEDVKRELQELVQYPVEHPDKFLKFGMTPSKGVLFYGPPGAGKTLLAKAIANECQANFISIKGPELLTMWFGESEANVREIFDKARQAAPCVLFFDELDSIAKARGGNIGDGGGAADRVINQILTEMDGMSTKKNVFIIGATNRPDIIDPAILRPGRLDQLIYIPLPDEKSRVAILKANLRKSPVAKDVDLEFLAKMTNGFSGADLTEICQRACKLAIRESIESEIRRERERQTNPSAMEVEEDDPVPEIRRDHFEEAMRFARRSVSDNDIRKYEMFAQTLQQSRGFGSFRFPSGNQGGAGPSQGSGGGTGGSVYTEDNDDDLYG
smiles,measurement,setting,value
CCc1ccc(S(=O)(=O)c2nnn3c2nc(O)c2ccccc23)cc1,IC50,Staphylococcus aureus,0.244 µM (active)
Cc1ccc2[nH]cc(C(=O)CCl)c2c1,IC50,[1],> 50 µM (not active)
same,IC50,[2],> 50 µM (not active)
C/C=C(/C)C(=O)O[C@@H]1c2c(ccc3ccc(=O)oc23)O[C@@H]1C(C)(C)OC(=O)/C(C)=C\C,EC50,[3],15.2 µM (active)
same,IC50,[4],5.85 µM (active)
same,EC50,[5],> 120 µM (not active)
same,EC50,[6],> 120 µM (not active)
same,IC50,[7],5.06 µM (active)
CC(C)Cc1c2c([nH]c(=S)c1C#N)CCCC2,IC50,[8],> 39.8 µM (not active)
same,IC50,[9],6.27 µM (active)
Cc1ccc(Nc2nc(-c3ccc(O)c(O)c3)cs2)nc1,IC50,[10],6.26 µM (active)
same,IC50,[11],3.85 µM (active)
same,IC50,Large T antigen,12.3 µM (active)
same,IC50,[12],48.6 µM (active)
COc1ccc(CNC(=O)CN(CC2CCCO2)C(=O)CNS(=O)(=O)c2ccc(C)cc2)cc1 (stereo not drawn),EC50,[13],> 50 µM (not active)
same,EC50,cells [14],> 350 µM (not active)
same,EC50,cells [15],> 350 µM (not active)
COc1ccc(Nc2ccc(N)cc2)cc1,EC50,Bcl-2-like protein 10,7.22 µM (active)
[O-][n+]1onc2c3cc(-c4ccccc4)[nH]c3ccc21,EC50,[16],> 49.7 µM (not active)
same,EC50,Wee1-like protein kinase,> 1.84 µM (active)
same,EC50,[17],4.16 µM (active)
same,CC50,[18],1.47 µM (active)
same,EC50,[19],9.83 µM (active)
same,EC50,[20],0.65 µM (active)
same,IC50,[21],1.59 µM (not active)
same,EC50,[22],0.597 µM (active)
same,CC50,[23],1.57 µM (active)
same,CC50,[24],2.6 µM (active)
same,CC50,[25],1.27 µM (active)
same,IC50,cells [26],0.67 µM (active)
same,AC50,INS1,2.52 µM (active)
COc1ccc2nc(NC(=O)CSc3nnc(C)n3N)sc2c1,EC50,[27],> 55.7 µM (not active)
same,EC50,[28],> 55.7 µM (not active)
O=C(Nc1cccc([N+](=O)[O-])c1)c1cc2ccccc2cc1O,EC50,HEK293 [29],> 35.4 µM (not active)
same,IC50,[10],2.73 µM (active)
same,EC50,[30],> 35.4 µM (not active)
same,IC50,[11],2.72 µM (active)
same,EC50,[31],> 35.4 µM (not active)
same,IC50,Tumor necrosis factor,2.2 µM (active)
same,IC50,[32],1.48 µM (active)
same,AC50,INS1,3.67 µM (active)
same,CC50,Vero,3.95 µM (active)
same,IC50,HEK293 [33],11.8 µM (active)
